Key:
[1] = biological target: T1, TLR8 (Homo sapiens, UniProt Q9NR97); assay: PBMC stimulation with DOTAP-complexed RNA ligands, TNF-α ELISA; format: cell-based
T1 construct: Peripheral blood mononuclear cells (PBMCs) were obtained from buffy coats from healthy adult donors; endogenous in cells; host or cells: primary human PBMCs from healthy donor buffy coats (TLR8 in monocytes)
T1 sequence (Q9NR97 27-1041): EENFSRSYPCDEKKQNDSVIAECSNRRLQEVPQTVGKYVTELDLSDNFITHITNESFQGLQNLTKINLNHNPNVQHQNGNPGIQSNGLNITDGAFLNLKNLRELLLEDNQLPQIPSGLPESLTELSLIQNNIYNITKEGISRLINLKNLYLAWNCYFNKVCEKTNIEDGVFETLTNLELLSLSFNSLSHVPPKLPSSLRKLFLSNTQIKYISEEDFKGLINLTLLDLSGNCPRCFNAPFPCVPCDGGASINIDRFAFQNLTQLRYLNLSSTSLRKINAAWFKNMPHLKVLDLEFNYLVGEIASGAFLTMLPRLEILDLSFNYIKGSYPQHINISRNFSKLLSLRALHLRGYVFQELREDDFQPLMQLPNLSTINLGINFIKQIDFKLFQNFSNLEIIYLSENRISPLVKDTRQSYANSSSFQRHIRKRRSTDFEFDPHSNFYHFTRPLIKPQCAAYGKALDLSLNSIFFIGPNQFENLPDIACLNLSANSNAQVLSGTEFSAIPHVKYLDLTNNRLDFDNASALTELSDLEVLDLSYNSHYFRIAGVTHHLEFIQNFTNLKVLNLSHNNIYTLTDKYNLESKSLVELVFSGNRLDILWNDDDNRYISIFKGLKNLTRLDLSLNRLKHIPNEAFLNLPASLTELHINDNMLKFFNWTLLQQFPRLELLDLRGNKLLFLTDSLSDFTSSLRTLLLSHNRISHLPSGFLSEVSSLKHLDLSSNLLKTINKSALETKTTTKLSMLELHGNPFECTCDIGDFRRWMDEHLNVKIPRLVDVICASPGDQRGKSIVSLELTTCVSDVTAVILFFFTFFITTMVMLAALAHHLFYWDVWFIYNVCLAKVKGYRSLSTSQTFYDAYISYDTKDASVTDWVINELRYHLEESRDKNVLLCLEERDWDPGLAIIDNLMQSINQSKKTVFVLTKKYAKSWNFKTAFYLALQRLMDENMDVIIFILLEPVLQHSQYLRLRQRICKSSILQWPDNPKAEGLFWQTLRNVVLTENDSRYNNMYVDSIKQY

[2] = biological target: T2, TLR7 (Homo sapiens, UniProt Q9NYK1); assay: PBMC stimulation with p-L-arginine-complexed RNA ligands, IFN-α ELISA; format: cell-based
T2 construct: Peripheral blood mononuclear cells (PBMCs) were obtained from buffy coats from healthy adult donors; endogenous in cells; host or cells: primary human PBMCs from healthy donor buffy coats (TLR7 expressed by pDCs)
T2 sequence (Q9NYK1 27-1049): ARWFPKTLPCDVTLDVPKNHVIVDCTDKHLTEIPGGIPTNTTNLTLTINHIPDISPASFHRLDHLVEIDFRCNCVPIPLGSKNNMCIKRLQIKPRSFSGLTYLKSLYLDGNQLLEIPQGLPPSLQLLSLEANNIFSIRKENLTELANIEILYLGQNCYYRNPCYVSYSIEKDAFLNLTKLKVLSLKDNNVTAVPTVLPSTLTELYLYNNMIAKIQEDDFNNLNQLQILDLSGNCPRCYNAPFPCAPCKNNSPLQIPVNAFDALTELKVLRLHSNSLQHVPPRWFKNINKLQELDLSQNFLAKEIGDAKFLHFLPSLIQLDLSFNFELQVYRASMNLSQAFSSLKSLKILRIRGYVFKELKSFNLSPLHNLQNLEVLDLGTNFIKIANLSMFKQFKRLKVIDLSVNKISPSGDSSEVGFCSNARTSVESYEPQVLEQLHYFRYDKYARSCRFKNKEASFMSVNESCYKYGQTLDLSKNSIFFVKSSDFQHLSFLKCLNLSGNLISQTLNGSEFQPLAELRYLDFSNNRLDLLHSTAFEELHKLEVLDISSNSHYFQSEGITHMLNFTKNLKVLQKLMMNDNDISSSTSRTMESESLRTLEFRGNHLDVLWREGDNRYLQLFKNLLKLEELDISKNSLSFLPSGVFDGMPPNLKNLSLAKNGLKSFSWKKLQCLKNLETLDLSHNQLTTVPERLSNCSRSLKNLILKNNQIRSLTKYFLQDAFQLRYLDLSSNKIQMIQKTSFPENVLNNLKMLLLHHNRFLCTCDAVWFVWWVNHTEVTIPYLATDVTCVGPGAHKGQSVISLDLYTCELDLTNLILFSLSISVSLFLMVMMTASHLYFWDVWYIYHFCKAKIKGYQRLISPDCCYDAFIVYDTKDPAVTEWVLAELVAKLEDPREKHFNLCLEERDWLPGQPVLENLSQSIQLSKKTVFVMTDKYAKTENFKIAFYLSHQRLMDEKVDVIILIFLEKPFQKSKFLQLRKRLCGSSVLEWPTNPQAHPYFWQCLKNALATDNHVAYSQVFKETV
Protocol: Peripheral blood mononuclear cells (PBMCs) were obtained from buffy coats from healthy adult donors. Buffy coat samples were first diluted with an equal volume of phosphate-buffered saline (PBS). Next, PBMCs were isolated via density gradient centrifugation with Lymphoprep density gradient media ([…] Technologies) and SepMate-50 tubes ([…] Technologies). Samples were centrifuged at 1000 g for 15 minutes. After centrifugation, the upper layers were collected by pouring into a new tube, diluted with PBS, and centrifuged at 450×g for 5 minutes. To lyse red blood cells, cell pellets were resuspended with 10 mL Ammonium-Chloride-Potassium (ACK) Lysis Buffer and incubated for 8 minutes at room temperature. After lysis, cells were washed with PBS and passed through two 70 μm cell strainers. Viable cell counts were determined with a Vi-CELL cell counter (Beckman Coulter). […] Guanosine was added between about 20 and about 30 minutes before the addition of poly-[…])-complexed RNA. […] After mixing by pipetting up and down, the reaction was incubated for 10 minutes, pipetted up and down again, and then added to the cells. In some experiments, RNA ligands were used at a final concentration of 0.6 μg/ml. Where indicated as “+2'3' cGMP”, 2'3' cyclic GMP purchased from eMolecules was complexed together with the RNA ligands. The final concentration of 2'3' cyclic GMP was 5 μg/ml. p-L-arginine was adjusted accordingly to keep the mass ratio of nucleic acid:p-L-arginine constant. Cell culture supernatants were collected 15-18 hours after stimulation and stored at -80° C. Cytokines in cell culture supernatants were detected with the BD OptEIA human TNF ELISA Set (BD Biosciences), and either Invitrogen IFN alpha Human Matched Antibody Pair kit (Thermo Fisher Scientific) or Human IFN Alpha Multi-Subtype ELISA Kit (PBL Assay Science). To test the effects of the RNA ligands described in Example 1 on TLR7 and TLR8 activation, PBMCs were stimulated with the RNA ligands using p-L-arginine complex delivery, delivery with DOTAP, or delivery without a carrier. Activity of TLR7 and TLR8 was assessed based on measurements of IFN-α or TNF-α by enzyme-linked immunosorbent assays (ELISA). In this setting, as depicted in FIG. 6, IFN-α induced by small RNAs is derived from TLR7 expressed by pDCs, or from RIG-I expressed by monocytes. In contrast, TNF-α secretion is derived from monocytes and serves as an indication of TLR8 activation. As shown in this figure, the p-L-arginine delivery restricts most of the activation to TLRs. First, the effects of the RNA ligands on TLR7 and TLR8 activation using p-L-arginine complex delivery were tested.

[3] = biological target: recombinant RNase T2 (Homo sapiens, UniProt O00584)
Chain of recombinant RNase T2 (O00584 25-256, species assumed): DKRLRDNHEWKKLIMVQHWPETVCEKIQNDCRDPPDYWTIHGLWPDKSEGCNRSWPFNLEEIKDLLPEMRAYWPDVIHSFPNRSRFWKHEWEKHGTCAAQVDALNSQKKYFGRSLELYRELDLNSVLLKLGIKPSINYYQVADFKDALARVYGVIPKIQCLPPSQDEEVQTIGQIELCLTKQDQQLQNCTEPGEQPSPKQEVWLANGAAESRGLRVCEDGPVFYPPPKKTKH

[4] = biological target: T2, TLR7; assay: PBMC stimulation with DOTAP-complexed RNA ligands, IFN-α ELISA; format: cell-based

Question: Which results are given for “CCUUCUUCUUCUUCUUCUUC (CCUUCUUCUUCUUCUUCUUC; all phosphodiester, sugars by position not given here) [ORN7009, reference compound]”?
Answer: TNF-α secretion (TLR8 activity) [1]: activated TLR8; IFN-α secretion (TLR7 activity) [2]: no or only minor IFN-α secretion; Degradation of full RNA ligand by RNase T2 [3]: degraded more quickly; IFN-α secretion (TLR7 activity) [4]: activated TLR8 rather than TLR7
